Assay results from patent publication US9999619B2, “Piperidin-4-yl azetidine derivatives as JAK1 inhibitors” (Incyte Corporation, priority 2010, dated 2018).
pIC50: −log10 of the molar value. Structures can show the parent of a compound that is named as a salt.

Tests used:
Type in all cases: biochemical
[1] = biological target: human JAK1 (a.a. 837-1142); experiment: In vitro JAK kinase assay (HTRF, phosphorylation of a biotinylated peptide), JAK1; conditions: ratio of JAK2 IC50 to JAK1 IC50, measured at 1 mM ATP
Summary of the method: (§1)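 N-terminal His-tagged catalytic domains, baculovirus-expressed in insect cells, phosphorylated a biotinylated peptide for 1 hr at room temperature. EDTA stop was followed by SA-APC and Eu-Py20 antibody for 40 minutes, with phosphopeptide read by HTRF.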

[2] = biological target: human JAK1 (a.a. 837-1142) (Homo sapiens, UniProt P23458); experiment: as above; conditions: measured at 1 mM ATP
Summary of the method: as §1

[3] = biological target: Jak2 (a.a. 828-1132) (Homo sapiens (Human), UniProt O60674); experiment: In vitro JAK kinase assay (HTRF, phosphorylation of a biotinylated peptide), JAK2; conditions: measured at 1 mM ATP
Summary of the method: as §1

Chain of Jak2 (a.a. 828-1132) (O60674 828-1132): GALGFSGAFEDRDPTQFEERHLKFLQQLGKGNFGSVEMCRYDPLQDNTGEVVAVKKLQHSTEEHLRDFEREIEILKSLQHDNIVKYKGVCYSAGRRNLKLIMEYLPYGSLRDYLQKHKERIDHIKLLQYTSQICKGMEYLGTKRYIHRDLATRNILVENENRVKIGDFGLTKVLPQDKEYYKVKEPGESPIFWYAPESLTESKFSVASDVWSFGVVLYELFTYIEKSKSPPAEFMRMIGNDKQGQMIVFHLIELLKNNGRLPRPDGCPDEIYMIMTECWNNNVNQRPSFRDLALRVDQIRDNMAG

Row | IC50 Ratio JAK2/JAK1 [1] | pIC50 [2] | pIC50 [3] | Compound
1 | 19.0 | ≥ 8.30 | 7.30 to 8.00 | CN(C)c1ccc(CN2CCC(N3CC(CC#N)(n4cc(-c5ncnc6[nH]ccc56)cn4)C3)CC2)c(F)c1C#N [Example 209, 3-[(4-{3-(Cyanomethyl)-3-[4-(7H-pyrrolo[2,3-d]pyrimidin-4-yl)-1H-pyrazol-1-yl]azetidin-1-yl}piperidin-1-yl)methyl]-6-(dimethylamino)-2-fluorobenzonitrile]
2 | 7.1 | ≥ 8.30 | 7.30 to 8.00 | Cc1noc(C)c1S(=O)(=O)N1CCC(N2CC(CC#N)(n3cc(-c4ncnc5[nH]ccc45)cn3)C2)CC1 [Example 260, {1-{1-[(3,5-dimethylisoxazol-4-yl)sulfonyl]piperidin-4-yl}-3-[4-(7H-pyrrolo[2,3-d]pyrimidin-4-yl)-1H-pyrazol-1-yl]azetidin-3-yl}acetonitrile]
3 | 5.9 | 7.70 to 8.30 | 7.30 to 8.00 | N#CCC1(n2cc(-c3ncnc4[nH]ccc34)cn2)CN(C2CCN(Cc3cccc(C#N)c3)CC2)C1 [Example 223, 3-[(4-{3-(cyanomethyl)-3-[4-(7H-pyrrolo[2,3-d]pyrimidin-4-yl)-1H-pyrazol-1-yl]azetidin-1-yl}piperidin-1-yl)methyl]benzonitrile]
4 | 32.7 | ≥ 8.30 | 7.30 to 8.00 | N#CCC1(n2cc(-c3ncnc4[nH]ccc34)cn2)CN(C2CCN(C(=O)c3cc(CN4CC[C@@H](F)C4)nc(C(F)(F)F)n3)CC2)C1 [Example 378, {1-(1-{[6-{[(3R)-3-fluoropyrrolidin-1-yl]methyl}-2-(trifluoromethyl)pyrimidin-4-yl]carbonyl}piperidin-4-yl)-3-[4-(7H-pyrrolo[2,3-d]pyrimidin-4-yl)-1H-pyrazol-1-yl]azetidin-3-yl}acetonitrile (trifluoroacetate salt: 4 TFA)]
5 | 4.0 | ≥ 8.30 | 7.30 to 8.00 | N#CCC1(n2cc(-c3c(F)cnc4[nH]ccc34)cn2)CN(C2CCN(C(=O)c3ccc(F)cn3)CC2)C1 [Example 319, {1-{1-[(5-fluoropyridin-2-yl)carbonyl]piperidin-4-yl}-3-[4-(5-fluoro-1H-pyrrolo[2,3-b]pyridin-4-yl)-1H-pyrazol-1-yl]azetidin-3-yl}acetonitrile]
6 | 2.9 | ≥ 8.30 | ≥ 8.00 | N#CCC1(n2cc(-c3ncnc4[nH]ccc34)cn2)CN(C2CCN(C(=O)c3c(F)cccc3F)CC2)C1 [Example 44, {1-[1-(2,6-difluorobenzoyl)piperidin-4-yl]-3-[4-(7H-pyrrolo[2,3-d]pyrimidin-4-yl)-1H-pyrazol-1-yl]azetidin-3-yl}acetonitrile]
7 | 4.0 | ≥ 8.30 | 7.30 to 8.00 | COc1ccccc1NC(=O)N1CCC(N2CC(CC#N)(n3cc(-c4ncnc5[nH]ccc45)cn3)C2)CC1 [Example 180, 4-{3-(cyanomethyl)-3-[4-(7H-pyrrolo[2,3-d]pyrimidin-4-yl)-1H-pyrazol-1-yl]azetidin-1-yl}-N-(2-methoxyphenyl)piperidine-1-carboxamide]
8 | 5.5 | ≥ 8.30 | 7.30 to 8.00 | COc1ccc(OC)c(NC(=O)N2CCC(N3CC(CC#N)(n4cc(-c5ncnc6[nH]ccc56)cn4)C3)CC2)c1 [Example 186, 4-{3-(cyanomethyl)-3-[4-(7H-pyrrolo[2,3-d]pyrimidin-4-yl)-1H-pyrazol-1-yl]azetidin-1-yl}-N-(2,5-dimethoxyphenyl)piperidine-1-carboxamide]
9 | 1.3 | 7.70 to 8.30 | 7.30 to 8.00 | N#CCC1(n2cc(-c3ncnc4[nH]ccc34)cn2)CN(C2CCN(Cc3ccc(-c4conn4)cc3)CC2)C1 [Example 221, {1-{1-[4-(1,2,3-oxadiazol-4-yl)benzyl]piperidin-4-yl}-3-[4-(7H-pyrrolo[2,3-d]pyrimidin-4-yl)-1H-pyrazol-1-yl]azetidin-3-yl}acetonitrile]
10 | 3.8 | ≥ 8.30 | ≥ 8.00 | N#CCC1(n2cc(-c3ncnc4[nH]ccc34)cn2)CN(C2CCN(C(=O)c3ccc(-c4cccnc4)c(F)c3)CC2)C1 [Example 123, {1-[1-(3-fluoro-4-pyridin-3-ylbenzoyl)piperidin-4-yl]-3-[4-(7H-pyrrolo[2,3-d]pyrimidin-4-yl)-1H-pyrazol-1-yl]azetidin-3-yl}acetonitrile]
11 | 5.6 | 7.70 to 8.30 | < 7.00 | N#CCC1(n2cc(-c3ncnc4[nH]ccc34)cn2)CN(C2CCN(C(=O)c3ccc(-c4nc5ccccc5o4)cc3)CC2)C1 [Example 136, {1-{1-[4-(1,3-benzoxazol-2-yl)benzoyl]piperidin-4-yl}-3-[4-(7H-pyrrolo[2,3-d]pyrimidin-4-yl)-1H-pyrazol-1-yl]azetidin-3-yl}acetonitrile]
12 | 12.1 | ≥ 8.30 | 7.30 to 8.00 | Cc1cccc(Cl)c1NC(=O)N1CCC(N2CC(CC#N)(n3cc(-c4ncnc5[nH]ccc45)cn3)C2)CC1 [Example 161, N-(2-chloro-6-methylphenyl)-4-{3-(cyanomethyl)-3-[4-(7H-pyrrolo[2,3-d]pyrimidin-4-yl)-1H-pyrazol-1-yl]azetidin-1-yl}piperidine-1-carboxamide]
13 | 3.4 | ≥ 8.30 | ≥ 8.00 | N#CCC1(n2cc(-c3ncnc4[nH]ccc34)cn2)CN(C2CCN(C(=O)c3ccsc3Br)CC2)C1 [Example 75, {1-{1-[(2-bromo-3-thienyl)carbonyl]piperidin-4-yl}-3-[4-(7H-pyrrolo[2,3-d]pyrimidin-4-yl)-1H-pyrazol-1-yl]azetidin-3-yl}acetonitrile]
14 | 5.4 | ≥ 8.30 | 7.30 to 8.00 | Cc1ccsc1C(=O)N1CCC(N2CC(CC#N)(n3cc(-c4ncnc5[nH]ccc45)cn3)C2)CC1 [Example 78, {1-{1-[(3-methyl-2-thienyl)carbonyl]piperidin-4-yl}-3-[4-(7H-pyrrolo[2,3-d]pyrimidin-4-yl)-1H-pyrazol-1-yl]azetidin-3-yl}acetonitrile]
15 | 15.7 | ≥ 8.30 | 7.30 to 8.00 | N#CCC1(n2cc(-c3ncnc4[nH]ccc34)cn2)CN(C2CCN(C(=O)c3ccc(-c4ccc5cnccc5c4)c(F)c3)CC2)C1 [Example 115, {1-[1-(3-fluoro-4-isoquinolin-6-ylbenzoyl)piperidin-4-yl]-3-[4-(7H-pyrrolo[2,3-d]pyrimidin-4-yl)-1H-pyrazol-1-yl]azetidin-3-yl}acetonitrile]
16 | 9.5 | ≥ 8.30 | 7.30 to 8.00 | N#CCC1(n2cc(-c3c(F)cnc4[nH]ccc34)cn2)CN(C2CCN(C(=O)c3cc(F)cc(C#N)c3)CC2)C1 [Example 316, 3-[(4-{3-(cyanomethyl)-3-[4-(5-fluoro-1H-pyrrolo[2,3-b]pyridin-4-yl)-1H-pyrazol-1-yl]azetidin-1-yl}piperidin-1-yl)carbonyl]-5-fluorobenzonitrile]
17 | 1.8 | ≥ 8.30 | ≥ 8.00 | CN(C)c1c(F)c(F)c(C(=O)N2CCC(N3CC(CC#N)(n4cc(-c5ncnc6[nH]ccc56)cn4)C3)CC2)c(F)c1F [Example 60, {1-{1-[4-(dimethylamino)-2,3,5,6-tetrafluorobenzoyl]piperidin-4-yl}-3-[4-(7H-pyrrolo[2,3-d]pyrimidin-4-yl)-1H-pyrazol-1-yl]azetidin-3-yl}acetonitrile]

Row | Compound | IC50 Ratio JAK2/JAK1 [1] | pIC50 [2] | pIC50 [3]
18 | N#CCC1(n2cc(-c3ncnc4[nH]ccc34)cn2)CN(C2CC3CCC(C2)N3C(=O)c2ccc(C#N)c(F)c2)C1 (stereo not drawn) [Example 140, 4-[(3-{3-(cyanomethyl)-3-[4-(7H-pyrrolo[2,3-d]pyrimidin-4-yl)-1H-pyrazol-1-yl]azetidin-1-yl}-8-azabicyclo[3.2.1]oct-8-yl)carbonyl]-2-fluorobenzonitrile] | 5.4 | 7.70 to 8.30 | 7.30 to 8.00
